Experiments:
Format in all cases: physicochemical
[1] = Mass transfer gas-to-liquid batch tests in a three-phase system (CO2/NO/Aqueous/NAP), CO2; conditions: gas mixture, phosphate buffer
Method: (§1) Mass transfer gas-to-liquid batch tests with a mixture of gases with CO2 and NO were performed to determine the mass transfer rate and selectivity of these gases in the presence of NAP and aqueous phase. The results were compared with respect to blank (water or phosphate buffer at pH 8 without NAP). The initial samples were filled with CO2 to reach a peak transmittance area between 8010 and 8940 cm^−1 and NO to reach a peak of transmittance area between 11 and 14 cm^−1, then 10 mL of each NAP (HTX, HNO and HEX) was injected. Tests were performed with a phosphate buffer at pH 8 at a 10% v/v ratio of NAP/aqueous phase. All experiments were performed in 500 mL amber glass bottles previously prepared in a glove box to maintain an inert atmosphere and carried out per at least triplicate at a temperature of 25° C. and 100 rpm orbital shaking in an incubator. CO2 and NO in the gas phase were measured at the beginning and at the end of the test. Also, the liquid phase was monitored for pH, nitrite (NO2^−) and nitrate (NO3^−) at the end of each test.
(§2) NO and CO2 peak area in the gas phase were measured by Fourier Transform Infrared Spectroscopy (FTIR). In these experiments the peak area was analyzed and not the concentration. Therefore, the performance of the tests will be given in percent (%) area reduction, which is defined in Eq 1. Nitrogen compounds were analyzed in liquid samples after being centrifuged at 15,000 rpm and filtration (0.22 μm) to separate the NAP found in the sample. NO2^− and NO3^− were measured using Hach Lange kits (LCK342 and LCK 339, respectively, Hach Lange, Germany).
(§3) The initial area (Areainitial) is a quantitative measure of the transmittance at certain given wavelengths (NO=1730-1930 cm^−1; CO2=2230-2400 cm^−1) and correlates the presence of the compound in the sample at time=0 h. The final area (Areafinal) is a quantitative measure of the transmittance at the given wavelengths (NO=between 1730-1930 cm^−1; CO2=2230-2400 cm-1) and correlates with the presence of the compound in the sample at time=1 h.

[2] = Nitric oxide (NO) absorption with pure NAPs (batch tests); conditions: pure NAP, first screening test, 1 hour, 25° C., initial NO 4500-5100 ppmv
Method: Batch tests with pure NAPs were performed in 120 mL glass amber vials with an initial concentration of NO between 4500 and 5100 ppmv and different amounts of NAPs (DES, SO, HTX, HNO and HEX). For this experiment each NAP was added to a vial containing NO. Each NAP was tested alone. The results were compared with respect to a blank containing deionized water instead of NAP. All experiments were carried out at a temperature of 25° C. and agitation of 100 rpm in an incubator, five replicates were made per point. Gas phase analysis (NO and NO2) was performed at the beginning of the experiment and at the end (1 hour).
NO and NO2 concentrations in the gas phase were measured by Fourier Transform Infrared Spectroscopy (FTIR) from an aliquot of 1 mL (PerkinElmer Inc., Spain). The NO removal efficiency in the tests was calculated from the difference in NO concentration from the beginning and end of each test. Nitrogen compounds and chemical oxygen demand (COD) were analyzed in liquid samples after centrifuged at 15,000 rpm and filtration (0.22 μm) to separate the NAP found in the sample. Nitrite and nitrate were measured using Hach Lange kits (LCK342 and LCK 339, respectively, Hach Lange, Germany). COD was measured using Hach Lange kits (LCK114 and LCK 214, respectively, Hach Lange, Germany).

[3] = Mass transfer gas-to-liquid tests in a two-phase system (CO2/NAP); conditions: pure CO2 (without gas mixture), 1 h
Method: Mass transfer gas-to-liquid batch tests were performed to determine the mass transfer rate of CO2 in the presence of NAP. The initial samples were filled with CO2 to reach a peak transmittance area between 6200 and 7100 cm-1, then 10 mL of each NAP (HTX, HNO and HEX) was injected. […] CO2 in the gas phase were measured at the beginning and at the end of the test. All experiments were performed in 500 mL amber glass bottles previously prepared in a glove box to maintain an inert atmosphere and carried out per at least triplicate at a temperature of 25° C. and 100 rpm orbital shaking in an incubator.
as §2, §3

[4] = Mass transfer gas-to-liquid batch tests in a two-phase system with a mixture of gases (CO2/NO/NAP), NO; conditions: 1 h
Method: (§4) Mass transfer gas-to-liquid batch tests with a mixture of gases with CO2 and NO were performed to determine the mass transfer rate and selectivity of these gases in the presence of NAP. The initial samples were filled with CO2 to reach a peak transmittance area between 6388 and 8018 cm^−1 and NO to reach a peak of transmittance area between 73 and 84 cm^−1, then 10 mL of each NAP (HTX, HNO and HEX) was injected. CO2 and NO in the gas phase were measured at the beginning and at the end of the test. All experiments were carried out per at least triplicate at a temperature of 25° C. and 100 rpm orbital shaking in an incubator. These tests had also a blank in which the NAP phase was replaced by phosphate buffer (pH=8).
as §2, §3

[5] = Mass transfer gas-to-liquid batch tests in a three-phase system (CO2/NO/Aqueous/NAP), NO; set-up: concentration or dose not given beside the values; conditions: phosphate buffer
Method: as §1, §2, §3

[6] = Mass transfer gas-to-liquid batch tests in a two-phase system with a mixture of gases (CO2/NO/NAP), CO2; conditions: 1 h
Method: as §4, §2, §3

Structure (SMILES)	CO2 peak area difference [1]	RE NO (NO removal efficiency) [2]	CO2 peak area reduction [3]	NO percent of area reduction [4]	NO percent of area reduction ([5]; with CO2)	NO percent of area reduction ([5]; without CO2)	CO2 peak area reduction [6]
CCCCCCCCCCCCCCCC [HEX, n-hexadecane]	8±2%	29.2%	11±3%	31±6%	28±3%	26±5%	15±2%
CC(CC(C)(C)C)CC(C)(C)CC(C)(C)C (centres unmarked) [HNO, 2,2,4,4,6,8,8-heptamethylnonane]	3±7%	–	18±3%	21±4%	54±4%	32±4%	13±0.3%
C[SiH](O[Si](C)(C)C)O[Si](C)(C)C [HTX, 1,1,1,3,5,5,5-heptamethyl-trisiloxane]	7±2%	49.2%	99±0.2%	62±5%	56±7%	70±3%	97±0.9%

Reference: patent US20250339817A1, “A PROCESS FOR THE NITRIC OXIDE ABATEMENT THROUGH BIOLOGICAL TREATMENTS” (FUNDACIÓ EURECAT, priority 2022, published 2025)
